Earlier results in patent US20090104212A1, “METHODS AND SYSTEMS FOR TREATING CELL PROLIFERATION DISORDERS USING TWO-PHOTON SIMULTANEOUS ABSORPTION” (Immunolight, priority 2007, published 2009).
Like-named read-outs stand apart in the source and are kept apart here. Non-standard residues stand in square brackets, D forms with d. Residues, ends and D or L forms follow the SMILES beside them. Bpa = N[CH](Cc1ccc(C(=O)c2ccccc2)cc1)C(=O)O; 2Nal = N[CH](Cc1ccc2ccccc2c1)C(=O)O; Aib = CC(C)(N)C(=O)O

Tests used:
tumors = conditions: in vivo
[1] = for kSET (Average): average over Λex 224, 266, 280 nm

duration of skin photosensitivity (clinical use) [h]	Structure (SMILES)	Length of photosensitization (in vivo) [h]	selectivity for tumors compared to normal tissues (tumors)	kSET (Average) [1] [s⁻¹]	ESSET ([1]; Λex 224 nm)	kSET ([1]; Λex 224 nm) [s⁻¹]	ESSET ([1]; Λex 266 nm)	kSET ([1]; Λex 266 nm) [s⁻¹]	ESSET ([1]; Λex 280 nm)	kSET ([1]; Λex 280 nm) [s⁻¹]
24 to 48	CC(=O)[O-].CC(=O)[O-].CCc1c(CC)c2cc3nc(cnc4cc(OCCOCCOCCOC)c(OCCOCCOCCOC)cc4ncc4nc(cc1[n-]2)C(CCCO)=C4C)C(C)=C3CCCO.O.[Lu+3] [Lutetium texahyrin, Motexafin lutetium]	24 to 48	one of the greatest reported selectivities for tumors							
	CC(NC(=O)C(C)(C)NC(=O)C(Cc1ccc(C(=O)c2ccccc2)cc1)NC(=O)C(C)(C)NC(=O)C(Cc1ccc2ccccc2c1)NC(=O)C(C)(C)NC(=O)C(C)NC(=O)C(C)(C)N)C(=O)O (single isomer, unassigned) [Compound 2B]			3.9e+07	77	3.1e+07	81	3.9e+07	83	4.7e+07
	CC1NC(=O)C(C)(C)NC(=O)C(Cc2ccc(C(=O)c3ccccc3)cc2)NC(=O)C(C)(C)NC(=O)C(C)NC(=O)C(C)(C)NC(=O)C(Cc2ccc3ccccc3c2)NC(=O)C(C)(C)NC1=O (centres unmarked) [Compound 1A] (cyclo([Aib][2Nal][Aib]A[Aib][Bpa][Aib]A); configuration not given here)			3.67e+07	80	3.8e+07	79	3.6e+07	79	3.6e+07
	CC(NC(=O)C(C)(C)NC(=O)C(Cc1ccc(C(=O)c2ccccc2)cc1)NC(=O)C(C)(C)NC(=O)C(C)NC(=O)C(C)(C)NC(=O)C(Cc1ccc2ccccc2c1)NC(=O)C(C)(C)N)C(=O)O (centres unmarked) [Compound 1B] (H-[Aib][2Nal][Aib]A[Aib][Bpa][Aib]A-OH; configuration not given here)				96.3	2.44e+08	95	1.8e+08	94	1.36e+08
